In one assay the target is KRAS G12V (Homo sapiens (Human), UniProt P01116, G12V). The experiment in a line: KRAS G12V degradation in SW620 cells (Western blot, DC50). The assay is classed as cell-based. The note with it: 24 hours. How it is done:
SW620 (KRAS G12V homozygous), AsPC1 (KRAS G12D homozygous), MIA PaCa2 (KRAS G12C homozygous), A549 (KRAS G12S homozygous) and MCF7 (KRAS WT) cells were obtained from American Type Culture Collection (ATCC). […] The following day, the test compound was administered to the cells by using 1000× compound stock solution prepared in DMSO at various concentrations. After administration of the compound, the cells were then incubated at 37° C. for 24 hours. Upon completion, the cells were washed with PBS and protein was collected in Laemmli sample buffer (1×; VWR International). Proteins in cell lysate were separated by SDS-PAGE and transferred to Odyssey nitrocellulose membranes (Licor) with iblot® dry blotting transfer system (ThermoFisher). Nonspecific binding was blocked by incubating membranes with Intercept Blocking Buffer (Licor) for 1 hour at room temperature with gentle shaking. […] After washing 3 times with TBS-T, the membranes were incubated with IRDye® 800CW goat anti-rabbit IgG (1:20,000, Licor) and IRDye® 680RD goat anti-mouse IgG (1:20,000, Licor) for 1 hour. After TBS-T washes, membranes were rinsed in TBS and Western blot images were acquired by Odyssey CLx (LI-COR Biosciences).
The signal intensity of target proteins was calculated using ImageStudio software. KRAS fluorescent intensity (FLU) from DMSO (vehicle) treatment was set as 100%. Relative KRAS expression level was determined by the following formula: […]
The percentage of KRAS expression was calculated using Microsoft Excel. The half-maximal degradation concentration (DCso) values were generated by GraphPad Prism (Version 9) using the dose-response equation of variable slope (four parameters).

The target in a further assay is KRAS-G12V/RAF1 (Homo sapiens (Human), UniProt P01116, G12V). The experiment in a line: KRAS/RAF1 binding inhibition assay (AlphaScreen). How it is done:
Binding affinity against GTP-bound KRAS of the compounds disclosed herein was measured by monitoring the interaction of guanosine 5′-[β,γ-imido]triphosphate-bound (GppNHp-bound) KRAS with the RBD domain of RAF1 in the presence of the test compound. […] The test compounds in 2% DMSO (final concentration) at various concentrations were then added to the reaction mixture and incubated for 60 minutes at 4° C.
Raw ALphaScreen data were converted to a percentage of inhibition (relative to DMSO) using the following equations: • a) For a given test compound concentration X: […]
The IC50 values were determined by nonlinear regression of plots of [inhibitor] vs. percentage of inhibition with variable slope, analyzed using GraphPad Prism (Version 9).

Data on 13 compounds can be found in patent US20250092039A1, “GLUTARIMIDE-CONTAINING PAN-KRAS-MUTANT DEGRADER COMPOUNDS AND USES THEREOF” (Tiger Biotherapeutics Inc., priority 2022, published 2025).

Each structure is given as a SMILES string. Some results are limits rather than exact numbers.

Chain of KRAS G12V (P01116-2 other isoform, or with tags, fused parts or gaps G12V): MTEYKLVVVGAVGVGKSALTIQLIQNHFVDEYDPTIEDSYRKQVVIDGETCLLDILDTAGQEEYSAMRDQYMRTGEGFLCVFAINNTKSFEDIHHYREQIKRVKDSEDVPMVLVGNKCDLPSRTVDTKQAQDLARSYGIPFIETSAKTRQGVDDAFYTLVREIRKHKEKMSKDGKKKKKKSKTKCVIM
Chain of KRAS-G12V/RAF1 (P01116-2 other isoform, or with tags, fused parts or gaps G12V): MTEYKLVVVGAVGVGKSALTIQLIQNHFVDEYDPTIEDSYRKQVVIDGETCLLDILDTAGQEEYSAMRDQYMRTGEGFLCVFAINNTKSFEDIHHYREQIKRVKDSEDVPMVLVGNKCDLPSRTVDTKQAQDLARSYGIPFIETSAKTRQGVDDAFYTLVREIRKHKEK

`CCc1c(F)ccc2cc(O)cc(-c3ncc4c(N5C[C@@H]6C[C@H](C5)[C@H](O)C6)nc(OCC5(CN6CCC(CN7CCN(c8ccc9c(c8)CN([C@H]8CCC(=O)NC8=O)C9=O)CC7)CC6)CC5)nc4c3F)c12` (stereo in doubt) [Compound 96, (S)-3-(5-(4-((1-((1-(((7-(8-ethyl-7-fluoro-3-hydroxynaphthalen-1-yl)-8-fluoro-4-((1R,SR,6R)-6-hydroxy-3-azabicyclo[3.2.1]octan-3-yl)pyrido[4,3-d]pyrimidin-2-yl)oxy)methyl)cyclopropyl)methyl)piperidin-4-yl)methyl)piperazin-1-yl)-1-oxoisoindolin-2-yl)piperidine-2,6-dione] gave a 50% degradation concentration (DC50) on KRAS G12V of less than 1 nM. The compound further had an IC50 on KRAS-G12V/RAF1 greater than 200 nM. At KRAS-G12V/RAF1, `CCc1c(F)ccc2cc(O)cc(-c3ncc4c(N5CCOCC6(CCO6)C5)nc(OCC5(CN6CCC(CN7CCN(c8ccc9c(c8)CN([C@H]8CCC(=O)NC8=O)C9=O)CC7)CC6)CC5)nc4c3F)c12` (stereo partly drawn) [Compound 125, (3S)-3-(5-(4-((1-((1-(((7-(8-ethyl-7-fluoro-3-hydroxynaphthalen-1-yl)-8-fluoro-4-(1,6-dioxa-9-azaspiro[3.6]decan-9-yl)pyrido[4,3-d]pyrimidin-2-yl)oxy)methyl)cyclopropyl)methyl)piperidin-4-yl)methyl)piperazin-1-yl)-1-oxoisoindolin-2-yl)piperidine-2,6-dione] showed an IC50 of 20 to 200 nM. With `CCc1cccc2cc(O)cc(-c3ncc4c(N(C)C5C[C@H]5F)nc(OCC5(CN6CCC(CN7CCN(c8ccc9c(c8)CN([C@H]8CCC(=O)NC8=O)C9=O)CC7)CC6)CC5)nc4c3F)c12` (stereo partly drawn) [Compound 29, (S)-3-(5-(4-((1-((1-(((7-(8-ethyl-3-hydroxynaphthalen-1-yl)-8-fluoro-4-(((1R,2R)-2-fluorocyclopropyl)(methyl)amino)pyrido[4,3-d]pyrimidin-2-yl)oxy)methyl)cyclopropyl)methyl)piperidin-4-yl)methyl)piperazin-1-yl)-1-oxoisoindolin-2-yl)piperidine-2,6-dione], the 50% degradation concentration (DC50) at KRAS G12V fell in the range of 1 to 10 nM.

`CCc1c(F)ccc2cc(O)cc(-c3ncc4c(N5CCC[C@]6(CCO6)C5)nc(OCC5(CN6CCC(CN7CCN(c8ccc9c(c8)CN(C8CCC(=O)NC8=O)C9=O)CC7)CC6)CC5)nc4c3F)c12` (stereo partly drawn) [Compound 44, (S)-3-(5-(4-((1-((1-(((7-(8-ethyl-7-fluoro-3-hydroxynaphthalen-1-yl)-8-fluoro-4-((S)-1-oxa-6-azaspiro[3.5]nonan-6-yl)pyrido[4,3-d]pyrimidin-2-yl)oxy)methyl)cyclopropyl)methyl)piperidin-4-yl)methyl)piperazin-1-yl)-1-oxoisoindolin-2-yl)piperidine-2,6-dione] gave a DC50 on KRAS G12V of 1 to 10 nM. For `CCc1c(F)ccc2cc(O)cc(-c3ncc4c(N5CCC[C@@](C)(O)C5)nc(OCC5(CN6CCC7(CC6)CC(F)(C6CCN(c8ccc9c(c8)CN(C8CCC(=O)NC8=O)C9=O)CC6)C7)CC5)nc4c3F)c12` (stereo partly drawn) [Compound 185, 3-(5-(4-(7-((1-(((7-(8-ethyl-7-fluoro-3-hydroxynaphthalen-1-yl)-8-fluoro-4-((R)-3-hydroxy-3-methylpiperidin-1-yl)pyrido[4,3-d]pyrimidin-2-yl)oxy)methyl)cyclopropyl)methyl)-2-fluoro-7-azaspiro[3.5]nonan-2-yl)piperidin-1-yl)-1-oxoisoindolin-2-yl)piperidine-2,6-dione], the DC50 on KRAS G12V was greater than 100 nM. Moreover, the IC50 on KRAS-G12V/RAF1 lay within 20 to 200 nM. In the same order, the values of `CCc1c(F)ccc2cc(O)cc(-c3ncc4c(N5CCCOC6CC65)nc(OCC5(CN6CCC(CN7CCN(c8ccc9c(c8)CN([C@H]8CCC(=O)NC8=O)C9=O)CC7)CC6)CC5)nc4c3F)c12` (stereo partly drawn) [Compound 160, (3S)-3-(5-(4-((1-((1-(((4-(2-oxa-6-azabicyclo[5.1.0]octan-6-yl)-7-(8-ethyl-7-fluoro-3-hydroxynaphthalen-1-yl)-8-fluoropyrido[4,3-d]pyrimidin-2-yl)oxy)methyl)cyclopropyl)methyl)piperidin-4-yl)methyl)piperazin-1-yl)-1-oxoisoindolin-2-yl)piperidine-2,6-dione] are greater than 100 nM and 20 to 200 nM.

For `CCc1c(F)ccc2cc(O)cc(-c3ncc4c(N5CCC[C@]6(C5)C[C@H](O)C6)nc(OCC5(CN6CCC7(CC6)CC(CN6CCN(c8ccc9c(c8)CN([C@H]8CCC(=O)NC8=O)C9=O)CC6)C7)CC5)nc4c3F)c12` [Compound 99, (S)-3-(5-(4-((7-((1-(((7-(8-ethyl-7-fluoro-3-hydroxynaphthalen-1-yl)-8-fluoro-4-((2s,4r)-2-hydroxy-6-azaspiro[3.5]nonan-6-yl)pyrido[4,3-d]pyrimidin-2-yl)oxy)methyl)cyclopropyl)methyl)-7-azaspiro[3.5]nonan-2-yl)methyl)piperazin-1-yl)-1-oxoisoindolin-2-yl)piperidine-2,6-dione], the 50% degradation concentration (DC50) on KRAS G12V is greater than 100 nM. The same compound showed an IC50 on KRAS-G12V/RAF1 of 20 to 200 nM. `CCc1c(F)ccc2cc(O)cc(-c3ncc4c(N5CCCC6(CCO6)C5)nc(OCC5(CN6CCC(CN7CCN(c8ccc9c(c8)CN(C8CCC(=O)NC8=O)C9=O)CC7)CC6)CC5)nc4c3F)c12` [Compound 23, (3S)-3-(5-(4-((1-((1-(((7-(8-ethyl-7-fluoro-3-hydroxynaphthalen-1-yl)-8-fluoro-4-(1-oxa-6-azaspiro[3.5]nonan-6-yl)pyrido[4,3-d]pyrimidin-2-yl)oxy)methyl)cyclopropyl)methyl)piperidin-4-yl)methyl)piperazin-1-yl)-1-oxoisoindolin-2-yl)piperidine-2,6-dione] showed a 50% degradation concentration (DC50) at KRAS G12V of 1 to 10 nM. Same read-out and setting: under `CCc1c(F)ccc2cc(O)cc(-c3ncc4c(N5CCCNC(=O)C5)nc(OCC5(CN6CCC(CN7CCN(c8ccc9c(c8)CN([C@H]8CCC(=O)NC8=O)C9=O)CC7)CC6)CC5)nc4c3F)c12` [Compound 95, (S)-3-(5-(4-((1-((1-(((7-(8-ethyl-7-fluoro-3-hydroxynaphthalen-1-yl)-8-fluoro-4-(3-oxo-1,4-diazepan-1-yl)pyrido[4,3-d]pyrimidin-2-yl)oxy)methyl)cyclopropyl)methyl)piperidin-4-yl)methyl)piperazin-1-yl)-1-oxoisoindolin-2-yl)piperidine-2,6-dione] stands greater than 100 nM. Turning to `CCc1c(F)ccc2cc(O)cc(-c3ncc4c(N5CCC[C@@](C)(O)C5)nc(OCC5(CN6CCC(N7CCN(c8ccc9c(c8)CN([C@H]8CCC(=O)NC8=O)C9=O)CC7)CC6)CC5)nc4c3F)c12` [Compound 7, (S)-3-(5-(4-(1-((1-(((7-(8-ethyl-7-fluoro-3-hydroxynaphthalen-1-yl)-8-fluoro-4-((R)-3-hydroxy-3-methylpiperidin-1-yl)pyrido[4,3-d]pyrimidin-2-yl)oxy)methyl)cyclopropyl)methyl)piperidin-4-yl)piperazin-1-yl)-1-oxoisoindolin-2-yl)piperidine-2.6-dione], the DC50 on KRAS G12V is less than 1 nM.

Take `CCc1cccc2cc(O)cc(-c3ncc4c(N5CCNC(=O)CC5)nc(OCC5(CN6CCC(CN7CCN(c8ccc9c(c8)CN([C@H]8CCC(=O)NC8=O)C9=O)CC7)CC6)CC5)nc4c3F)c12` [Compound 127, (S)-3-(5-(4-((1-((1-(((7-(8-ethyl-3-hydroxynaphthalen-1-yl)-8-fluoro-4-(5-oxo-1,4-diazepan-1-yl)pyrido[4,3-d]pyrimidin-2-yl)oxy)methyl)cyclopropyl)methyl)piperidin-4-yl)methyl)piperazin-1-yl)-1-oxoisoindolin-2-yl)piperidine-2,6-dione]: at KRAS G12V, the DC50 is greater than 100 nM. Same read-out and setting: as for `CCc1c(F)ccc2cc(O)cc(-c3ncc4c(N5CCC[C@@]6(CCO6)C5)nc(OCC5(CN6CCC(CN7CCN(c8ccc9c(c8)CN(C8CCC(=O)NC8=O)C9=O)CC7)CC6)CC5)nc4c3F)c12` (stereo partly drawn) [Compound 45, (S)-3-(5-(4-((1-((1-(((7-(8-ethyl-7-fluoro-3-hydroxynaphthalen-1-yl)-8-fluoro-4-((R)-1-oxa-6-azaspiro[3.5]nonan-6-yl)pyrido[4,3-d]pyrimidin-2-yl)oxy)methyl)cyclopropyl)methyl)piperidin-4-yl)methyl)piperazin-1-yl)-1-oxoisoindolin-2-yl)piperidine-2,6-dione], the figure is greater than 100 nM. At KRAS-G12V/RAF1, `CCc1cccc2cc(O)cc(-c3ncc4c(N5CCC[C@@](C)(O)C5)nc(OCC5(CN6CC7(CCC(F)(CN8CCN(c9ccc%10c(c9)CN([C@H]9CCC(=O)NC9=O)C%10=O)CC8)CC7)C6)CC5)nc4c3F)c12` [Compound 179, (S)-3-(5-(4-((2-((1-(((7-(8-ethyl-3-hydroxynaphthalen-1-yl)-8-fluoro-4-((R)-3-hydroxy-3-methylpiperidin-1-yl)pyrido[4,3-d]pyrimidin-2-yl)oxy)methyl)cyclopropyl)methyl)-7-fluoro-2-azaspiro[3.5]nonan-7-yl)methyl)piperazin-1-yl)-1-oxoisoindolin-2-yl)piperidine-2,6-dione] registered a 50% inhibitory concentration (IC50) of 20 to 200 nM.
